Reference: patent US8680052B1, “Methods of treating, reducing the incidence of, and/or preventing ischemic events” (The Medicines Company, priority 2013, dated 2014)
Read-outs that look alike come from different tables or passages of the source.

Columns and labels:
[1] = test system: patients undergoing percutaneous coronary intervention (PCI); conditions: for Mortality/Q-wave MI/IDR / Mortality/Q-wave MI/Stent thrombosis: exploratory; for Angiographic complications (site reported): Abrupt vessel closure / Angiographic complications (site reported): Acute stent thrombosis / Angiographic complications (site reported): Need for urgent CABG / Angiographic complications (site reported): New thrombus or suspected thrombus / Angiographic complications (site reported): Threatened abrupt closure / Angiographic complications (site reported): Unsuccessful procedure: index PCI
Protocol: The diagnosis of non-ST-segment elevation myocardial infarction required troponin I or T greater than the upper limit of normal within 24 hours of randomization (or if troponin results were unavailable at that time, creatine kinase-myocardial band isoenzyme [CK-MB] greater than the upper limit of normal). The diagnosis of unstable angina required ischemic chest discomfort occurring at rest and lasting ≧10 minutes within the 24 hours prior to randomization and dynamic electrocardiographic changes; age ≧65 years and/or diabetes mellitus were also required.
The primary efficacy endpoint was the composite of mortality, myocardial infarction, or ischemia-driven revascularization at 48 hours. The primary analysis was performed on a modified intent-to-treat population. Confirmatory analyses were performed on an intent-to-treat population. Secondary endpoints included the individual rates of mortality, myocardial infarction, new Q-wave myocardial infarction, ischemia-driven revascularization, abrupt vessel closure, or stroke at 48 hours. Mortality at 30 days and 1 year was also recorded. The clinical events committee adjudicated myocardial infarction, Q-wave myocardial infarction, ischemia-driven revascularization, stent thromboses, and stroke (ischemic or hemorrhagic). The definition of stent thrombosis was similar to the Academic Research Consortium definition of definite stent thrombosis. After review of the prespecified analyses, two exploratory endpoints less reliant on periprocedural biomarker ascertainment were examined. The exploratory endpoints, which were composed of prespecified and adjudicated endpoints, were the composite of mortality, Q-wave myocardial infarction, or ischemia-driven revascularization and the composite of mortality, Q-wave myocardial infarction, or stent thrombosis. Bleeding and adverse events through 48 hours were compared.
All efficacy analyses were performed on the modified intent-to-treat population, defined as all randomized patients who received at least one dose of study drug and underwent the index PCI. All safety-related analyses were performed on the safety population, which included all patients who received at least one dose of assigned study drug. Patients in the safety analyses were assigned to a treatment arm based on treatment actually received, not as randomized. Intent-to-treat analyses are also presented for full disclosure of results. All statistical tests were two-tailed using a level of significance of 0.05. […] Logistic regression was also used to analyze the majority of the remaining secondary endpoints.

[2] = test system: patients with atherosclerosis undergoing PCI; type: in vivo; conditions: human, in vivo, 48 h
Protocol: The primary safety end point was severe bleeding not related to coronary-artery bypass grafting, according to the Global Use of Strategies to Open Occluded Coronary Arteries (GUSTO) criteria, at 48 hours. Several other bleeding definitions were also applied.

COC(=O)[C@H](c1ccccc1Cl)N1CCc2sccc2C1 [Clopidogrel, clopidogrel, reference compound]
All-cause mortality ([1]; 30-day, ITT): 47 (1.8) no. (%)
IDR ([1]; 30-day, ITT): 49 (1.8) no. (%)
MI ([1]; 30-day, ITT): 202 (7.6) no. (%)
Mortality/MI/IDR ([1]; 30-day, ITT): 254 (9.6) no. (%)
Q-wave MI ([1]; 30-day, ITT): 15 (0.6) no. (%)
Stent thrombosis ([1]; 30-day, ITT): 29 (1.1) no. (%)
Mortality/Q-wave MI/IDR ([1]; 30-day, ITT): 94 (3.5) no. (%)
Mortality/Q-wave MI/Stent thrombosis ([1]; 30-day, ITT): 77 (2.9) no. (%)
All-cause mortality ([1]; 30-day, MITT): 45 (1.7) no. (%)
IDR ([1]; 30-day, MITT): 46 (1.7) no. (%)
MI ([1]; 30-day, MITT): 201 (7.6) no. (%)
Mortality/MI/IDR ([1]; 30-day, MITT): 249 (9.5) no. (%)
Q-wave MI ([1]; 30-day, MITT): 14 (0.5) no. (%)
Stent thrombosis ([1]; 30-day, MITT): 28 (1.1) no. (%)
Mortality/Q-wave MI/IDR ([1]; 30-day, MITT): 89 (3.4) no. (%)
Mortality/Q-wave MI/Stent thrombosis ([1]; 30-day, MITT): 73 (2.8) no. (%)
All-cause mortality ([1]; 30-day, Safety population): 45 (1.7) no. (%)
IDR ([1]; 30-day, Safety population): 47 (1.8) no. (%)
MI ([1]; 30-day, Safety population): 203 (7.7) no. (%)
Mortality/MI/IDR ([1]; 30-day, Safety population): 251 (9.5) no. (%)
Q-wave MI ([1]; 30-day, Safety population): 15 (0.6) no. (%)
Stent thrombosis ([1]; 30-day, Safety population): 28 (1.1) no. (%)
Mortality/Q-wave MI/IDR ([1]; 30-day, Safety population): 90 (3.4) no. (%)
Mortality/Q-wave MI/Stent thrombosis ([1]; 30-day, Safety population): 74 (2.8) no. (%)
All-cause mortality ([1]; 48-hour, ITT): 19 (0.7) no. (%)
IDR ([1]; 48-hour, ITT): 26 (1.0) no. (%)
MI ([1]; 48-hour, ITT): 192 (7.2) no. (%)
Mortality/MI/IDR ([1]; 48-hour, ITT): 213 (8.0) no. (%)
Q-wave MI ([1]; 48-hour, ITT): 9 (0.3) no. (%)
Stent thrombosis ([1]; 48-hour, ITT): 16 (0.6) no. (%)
Stroke ([1]; 48-hour, ITT): 6 (0.2) no. (%)
Mortality/Q-wave MI/IDR ([1]; 48-hour, ITT): 44 (1.7) no. (%)
Mortality/Q-wave MI/Stent thrombosis ([1]; 48-hour, ITT): 36 (1.4) no. (%)
All-cause mortality ([1]; 48-hour, MITT): 18 (0.7) no. (%)
IDR ([1]; 48-hour, MITT): 24 (0.9) no. (%)
MI ([1]; 48-hour, MITT): 191 (7.2) no. (%)
Mortality/MI/IDR (primary endpoint) ([1]; 48-hour, MITT): 210 (8.0) no. (%)
Q-wave MI ([1]; 48-hour, MITT): 8 (0.3) no. (%)
Stent thrombosis ([1]; 48-hour, MITT): 16 (0.6) no. (%)
Stroke ([1]; 48-hour, MITT): 5 (0.2) no. (%)
Mortality/Q-wave MI/IDR ([1]; 48-hour, MITT): 41 (1.6) no. (%)
Mortality/Q-wave MI/Stent thrombosis ([1]; 48-hour, MITT): 34 (1.3) no. (%)
Mortality/Q-wave MI/IDR ([1]; 48-hour, Safety population): 42 (1.6) no. (%)
Mortality/Q-wave MI/Stent thrombosis ([1]; 48-hour, Safety population): 35 (1.3) no. (%)
All-cause mortality ([1]; 48-hour, safety population): 18 (0.7) no. (%)
IDR ([1]; 48-hour, safety population): 25 (0.9) no. (%)
MI ([1]; 48-hour, safety population): 193 (7.3) no. (%)
Mortality/MI/IDR ([1]; 48-hour, safety population): 212 (8.0) no. (%)
Q-wave MI ([1]; 48-hour, safety population): 9 (0.3) no. (%)
Stent thrombosis ([1]; 48-hour, safety population): 16 (0.6) no. (%)
Stroke ([1]; 48-hour, safety population): 5 (0.2) no. (%)
Angiographic complications (site reported): Abrupt vessel closure ([1]; ITT): 16 (0.6)
Angiographic complications (site reported): Acute stent thrombosis ([1]; ITT): 5 (0.2)
Angiographic complications (site reported): Need for urgent CABG ([1]; ITT): 4 (0.2)
Angiographic complications (site reported): New thrombus or suspected thrombus ([1]; ITT): 15 (0.6)
Angiographic complications (site reported): Threatened abrupt closure ([1]; ITT): 9 (0.3)
Angiographic complications (site reported): Unsuccessful procedure ([1]; ITT): 97 (3.7)
Angiographic complications (site reported): Abrupt vessel closure ([1]; MITT): 16 (0.6)
Angiographic complications (site reported): Acute stent thrombosis ([1]; MITT): 5 (0.2)
Angiographic complications (site reported): Need for urgent CABG ([1]; MITT): 3 (0.1)
Angiographic complications (site reported): New thrombus or suspected thrombus ([1]; MITT): 15 (0.6)
Angiographic complications (site reported): Threatened abrupt closure ([1]; MITT): 9 (0.3)
Angiographic complications (site reported): Unsuccessful procedure ([1]; MITT): 95 (3.6)
Angiographic complications (site reported): Abrupt vessel closure ([1]; Safety population): 16 (0.6)
Angiographic complications (site reported): Acute stent thrombosis ([1]; Safety population): 5 (0.2)
Angiographic complications (site reported): Need for urgent CABG ([1]; Safety population): 3 (0.1)
Angiographic complications (site reported): New thrombus or suspected thrombus ([1]; Safety population): 15 (0.6)
Angiographic complications (site reported): Threatened abrupt closure ([1]; Safety population): 9 (0.3)
Angiographic complications (site reported): Unsuccessful procedure ([1]; Safety population): 95 (3.6)
Any blood transfusion [2]: 16/5527 (0.3) number/total number (percent)
GUSTO-defined bleeding, primary safety end point: severe or life-threatening bleeding [2]: 6/5527 (0.1) number/total number (percent)
GUSTO-defined moderate bleeding [2]: 13/5527 (0.2) number/total number (percent)
GUSTO-defined severe or moderate bleeding [2]: 19/5527 (0.3) number/total number (percent)
TIMI-defined major bleeding [2]: 5/5527 (0.1) number/total number (percent)
TIMI-defined major or minor bleeding [2]: 8/5527 (0.3) number/total number (percent)
TIMI-defined minor bleeding [2]: 3/5527 (0.1) number/total number (percent)
adverse events that led to discontinuation of the study drug [2]: 0.4%
rate of GUSTO-defined severe bleeding (primary safety end point) [2]: 0.11%
rate of adverse events related to treatment [2]: 19.1%
transient dyspnea [2]: 0.3%
